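48-hour exposure; five concentrations; linearly interpolated endpoints. TGI: concentration producing complete growth inhibition.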
Assays:
Test in all cases: NCI tumour cell line growth inhibition, 48 h
786-0 renal = tested on: 786-0 renal
A498 renal = tested on: A498 renal
A549 NSCLC = tested on: A549 NSCLC
ACHN renal = tested on: ACHN renal
CCRF-CEM leukemia = tested on: CCRF-CEM leukemia
HCC-2998 colon = tested on: HCC-2998 colon
M14 melanoma = tested on: M14 melanoma
NCI-H226 lung = tested on: NCI-H226 lung
NCI-H460 lung = tested on: NCI-H460 lung
OVCAR-8 ovarian = tested on: OVCAR-8 ovarian
SF-268 CNS = tested on: SF-268 CNS
SF-295 CNS = tested on: SF-295 CNS
T-47D breast = tested on: T-47D breast
TK-10 renal = tested on: TK-10 renal
UO-31 renal = tested on: UO-31 renal
RXF 393 renal = tested on: RXF 393 renal
UACC-257 melanoma = tested on: UACC-257 melanoma
UACC-62 melanoma = tested on: UACC-62 melanoma

Row | SMILES | TGI (786-0 renal) | TGI (A498 renal) | TGI (A549 NSCLC) | TGI (ACHN renal) | TGI (CCRF-CEM leukemia) | TGI (HCC-2998 colon) | TGI (M14 melanoma) | TGI (NCI-H226 lung) | TGI (NCI-H460 lung) | TGI (OVCAR-8 ovarian) | TGI (SF-268 CNS) | TGI (SF-295 CNS) | TGI (T-47D breast) | TGI (TK-10 renal) | TGI (UO-31 renal) | TGI (RXF 393 renal) | TGI (UACC-257 melanoma) | TGI (UACC-62 melanoma)
1 | CCc1cc(-c2nsc(=O)o2)c(S(=O)(=O)CC)s1 | > 100 µM | > 100 µM | > 100 µM | > 100 µM | > 100 µM | > 100 µM | > 100 µM | > 100 µM | > 100 µM | > 100 µM | > 100 µM | > 100 µM | > 100 µM | > 100 µM | > 100 µM |  |  | 
2 | CN(C)CCOc1cc2c(c3ccccc13)-c1ccccc1C2=O |  | 19.3 µM | 22 µM |  | 10.8 µM | 4.68 µM |  | 5.69 µM | 2.34 µM | 3.23 µM | 3.24 µM | 4.42 µM |  |  | 3.15 µM | 5.3 µM | 3.17 µM | 2.97 µM
3 | COC(=O)c1cc(NC2OCC(OC(C)=O)C(OC(C)=O)C2OC(C)=O)nc(SC)c1C(=O)OC (centres undefined) | > 100 µM |  | > 100 µM | > 100 µM | > 100 µM | > 100 µM | > 100 µM |  | > 100 µM | > 100 µM | > 100 µM | > 100 µM | > 100 µM | > 100 µM | > 100 µM |  | > 100 µM | > 100 µM
4 | CN(C(=O)OC(C)(C)C)[C@H]1CCCC[C@H]1N1CCCC1 | > 100 µM | > 100 µM | > 100 µM | > 100 µM | > 100 µM |  | > 100 µM | > 100 µM |  | > 100 µM | > 100 µM | > 100 µM | > 100 µM | > 100 µM | > 100 µM |  | > 100 µM | > 100 µM
5 | CS(=O)(=O)c1nc(N)nc2nc[nH]c12 | > 100 µM | > 100 µM | > 100 µM | > 100 µM | > 100 µM | > 100 µM | > 100 µM | > 100 µM | > 100 µM | > 100 µM | > 100 µM | > 100 µM |  | > 100 µM | > 100 µM | > 100 µM | > 100 µM | > 100 µM
6 | CCSC(=Nc1ccccc1)SC | > 100 µM |  | > 100 µM | > 100 µM | > 100 µM | > 100 µM | > 100 µM | > 100 µM | > 100 µM | > 100 µM | > 100 µM | > 100 µM |  | > 100 µM | > 100 µM | > 100 µM | > 100 µM | > 100 µM
7 | Cn1c(=O)n(-c2c3ccccc3c(Cl)c3ccccc23)n(C(C)(C)C)c1=O | > 100 µM | > 100 µM | > 100 µM | > 100 µM | > 100 µM | > 100 µM | > 100 µM | > 100 µM | > 100 µM | > 100 µM | > 100 µM | > 100 µM | > 100 µM | > 100 µM | > 100 µM |  | > 100 µM | > 100 µM
8 | O=[N+]([O-])C(/C(Cl)=C(/Cl)N1CCCCC1)=C1\NCCO1 | > 100 µM | > 100 µM | > 100 µM | > 100 µM | > 100 µM | > 100 µM | > 100 µM | > 100 µM | > 100 µM | > 100 µM | > 100 µM | > 100 µM | > 100 µM |  | > 100 µM |  | > 100 µM | > 100 µM
9 | N#CN=Nc1cc(Cl)c(N=NC#N)cc1Cl |  | > 100 µM | > 100 µM | > 100 µM | 92.2 µM | > 100 µM | > 100 µM | > 100 µM | > 100 µM | > 100 µM | > 100 µM | > 100 µM |  | > 100 µM |  | > 100 µM | > 100 µM | > 100 µM
10 | COC(=O)CCc1ccc2c(c1)CCC2 | > 100 µM |  | > 100 µM | > 100 µM | > 100 µM | > 100 µM | > 100 µM | > 100 µM | > 100 µM | > 100 µM | > 100 µM | > 100 µM | > 100 µM | > 100 µM | > 100 µM |  | > 100 µM | > 100 µM
11 | NC(=S)SCCC(=O)O | > 100 µM | > 100 µM | > 100 µM | > 100 µM | > 100 µM | > 100 µM | > 100 µM | > 100 µM | > 100 µM | > 100 µM | > 100 µM | > 100 µM | > 100 µM | > 100 µM | > 100 µM |  | > 100 µM | > 100 µM
12 | CC1CC(N)=Nc2ccccc2N1Cc1ccccc1 (centres undefined) | > 100 µM | 23.3 µM | 32.7 µM | 28.5 µM | 33.7 µM |  | 29.3 µM | 30.9 µM | 26.8 µM | 27.8 µM | 26.4 µM | 27.8 µM |  | 28.2 µM | 42.3 µM | 24.4 µM | 25.5 µM | 27.2 µM
13 | CCOC(=O)C(NNS(=O)(=O)c1ccc(C)cc1)S(=O)(=O)C(F)(F)C(F)(F)C(F)(F)C(F)(F)F (centres undefined) | > 100 µM | > 100 µM | > 100 µM | > 100 µM |  | > 100 µM | > 100 µM | > 100 µM | > 100 µM | > 100 µM | > 100 µM | > 100 µM | > 100 µM | > 100 µM | > 100 µM |  | > 100 µM | > 100 µM
14 | CCCCOC(=O)CN1C(=O)c2ccccc2C1=O |  |  | > 100 µM | > 100 µM |  | > 100 µM | > 100 µM | > 100 µM | > 100 µM | > 100 µM | > 100 µM | > 100 µM |  | > 100 µM | > 100 µM | > 100 µM | > 100 µM | > 100 µM
15 | CCOC(=O)Cc1ccc(Nc2nc3cc(C(F)(F)F)ccc3nc2C(=O)OCC)cc1 | > 100 µM | > 100 µM | > 100 µM | > 100 µM |  |  | > 100 µM | 91.6 µM | > 100 µM | > 100 µM | > 100 µM | > 100 µM | > 100 µM | > 100 µM | > 100 µM | 51.5 µM | > 100 µM | > 100 µM

From PubChem BioAssay (NCI)
